Among the data in PubChem BioAssay AID2125 (NMMLSC, 2009) are percent response (growth) and EC50 values, retold here.

Molecules are shown by their SMILES. Active and inactive are the calls of the source.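 The calls were made as follows: active = combined score above 50, rising as EC50 falls below 10 µM and growth at top dose drops; inactive = the rest.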 Peptide text beside a SMILES is read from it. * marks the point of attachment. Cbz = O=C(OCc1ccccc1)*

Test systems include YE3957; YE3965; YE4012; YE4005; YE3963; YE4006; YE4010; YE3955; YE3962.
Assay in all cases: growth inhibition of S. cerevisiae strain panel, profiling panel, 26S proteasome disassembly project, secondary panel, OD600 (AID 2125)
What all share (details): growth OD600, 6-8 h

The mark [1] stands for this setting: at 100 µM, active compounds read low.

As to `CC(=O)N1C(=O)C(=C2C=C(C)OC(C)=C2)c2ccccc21`, the percent response (growth) in the experiment with YE3957 (setting [1]) is 100% (inactive); in the experiment on YE3965 (setting [1]), 34.3% (inactive); in the experiment on YE4012 (setting [1]), 96.9% (inactive); in the experiment on YE4005 (setting [1]) it was 70.5% (inactive); in the experiment on YE3963 (setting [1]) it was 63.5% (inactive); with YE3955 (setting [1]), 70.6% (inactive). Further, the EC50 was 36 µM (inactive) with YE4006, 0.13 µM in the experiment with YE4010 and 0.16 µM in the experiment on YE3962.

On to `CC(C)C[C@@H](C=O)NC(=O)[C@H](CC(C)C)NC(=O)[C@H](CC(C)C)NC(=O)OCc1ccccc1` (Cbz-Leu-Leu-Leu-aldehyde), for which the concentration giving a half-maximal response (EC50) with YE3957 was 2.86 µM; with YE3965 it was 1.05 µM; with YE4012 it was 1550 µM (inactive); with YE4005, 1.24 µM; with YE3963, 0.93 µM; in the experiment on YE3955 it was 0.9 µM. Also, the percent response (growth) in the experiment with YE4006 (setting [1]) was 63.7% (inactive); in the experiment with YE4010 (setting [1]), 75.5% (inactive); with YE3962 (setting [1]), 47.5% (inactive).
